Measured values taken from PubChem BioAssay AID248 (DTP/NCI, 2004).
Inconclusive results and toxic doses are left out. Rule as the data show it: active = T/C of 150% or more; inactive = T/C below 125%.

Test system: L1210 leukemia ip in BDF1 mice, survival T/C
Test: NCI In Vivo Anticancer Drug Screen. Data for tumor model L1210 Leukemia (intraperitoneal) in B6D2F1 (BDF1) mice
Conditions: endpoint: mean survival time, higher = longer survival
Procedure, shortened: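 Survival endpoint. Drug-treated group vs vehicle group, expressed as T divided by C. Tumor passaged by transplantation.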

[1] = dose: 100.0 mg/kg/injection, schedule: Q01DX001 (ip), vehicle: saline with Tween-80
[2] = dose: 200.0 mg/kg/injection, schedule: Q01DX001 (ip), vehicle: saline with Tween-80
[3] = dose: 200.0 mg/kg/injection, schedule: Q01DX001 (ip), vehicle: saline
[4] = dose: 400.0 mg/kg/injection, schedule: Q01DX001 (ip), vehicle: saline with Tween-80
[5] = dose: 400.0 mg/kg/injection, schedule: Q01DX001 (ip), vehicle: saline
[6] = dose: 100.0 mg/kg/injection, schedule: Q01DX009 (ip), vehicle: Klucel (hydroxypropylcellulose) (HPC)
[7] = dose: 200.0 mg/kg/injection, schedule: Q01DX009 (ip), vehicle: Klucel (hydroxypropylcellulose) (HPC)
[8] = dose: 400.0 mg/kg/injection, schedule: Q01DX009 (ip), vehicle: Klucel (hydroxypropylcellulose) (HPC)
[9] = dose: 50.0 mg/kg/injection, schedule: Q01DX001 (ip), vehicle: saline
[10] = dose: 100.0 mg/kg/injection, schedule: Q01DX001 (ip), vehicle: saline
[11] = dose: 100.0 mg/kg/injection, schedule: Q04DX003 (ip), vehicle: Klucel (hydroxypropylcellulose) (HPC)
[12] = dose: 200.0 mg/kg/injection, schedule: Q04DX003 (ip), vehicle: Klucel (hydroxypropylcellulose) (HPC)
[13] = dose: 400.0 mg/kg/injection, schedule: Q04DX003 (ip), vehicle: Klucel (hydroxypropylcellulose) (HPC)
[14] = dose: 100.0 mg/kg/injection, schedule: Q04DX003 (ip), vehicle: saline with Tween-80
[15] = dose: 200.0 mg/kg/injection, schedule: Q04DX003 (ip), vehicle: saline with Tween-80

Measured: T/C

Cc1cc(C)c2c(C#N)cn(-c3ccc([N+](=O)[O-])cc3)c2n1
inactive: [1] 98 % of control | [2] 109 % of control | [3] 102 % of control | [4] 95 % of control | [5] 94 % of control

Cc1cccc(N=Nc2ccc(O)cc2)c1
inactive: [6] 100 % of control | [7] 97 % of control | [8] 101 % of control

CC(=O)OCC(OC(C)=O)C(OC(C)=O)C(OC(C)=O)C(C#N)OC(C)=O (centres undefined)
inactive: [9] 106 % of control | dose: 100.0 mg/kg/injection, schedule: Q01DX001 (ip), vehicle: other 115 % of control | [10] 103 % of control | dose: 200.0 mg/kg/injection, schedule: Q01DX001 (ip), vehicle: other 102 % of control | [3] 95 % of control | dose: 400.0 mg/kg/injection, schedule: Q01DX001 (ip), vehicle: other 96 % of control | [5] 91 % of control

OC(CN1CCCCC1)c1nc2ccccc2c2ccccc12 (centres undefined)
inactive: [9] 102 % of control | [10] 94 % of control

Nc1nc(N)c2nc(CNC3CCCCC3)cnc2n1
inactive: dose: 20.0 mg/kg/injection, schedule: Q01DX009 (ip), vehicle: Klucel (hydroxypropylcellulose) (HPC) 95 % of control | dose: 40.0 mg/kg/injection, schedule: Q01DX009 (ip), vehicle: Klucel (hydroxypropylcellulose) (HPC) 93 % of control | dose: 80.0 mg/kg/injection, schedule: Q01DX009 (ip), vehicle: Klucel (hydroxypropylcellulose) (HPC) 97 % of control

c1ccc(COCC[P+](c2ccccc2)(c2ccccc2)c2ccccc2)cc1
inactive: dose: 5.0 mg/kg/injection, schedule: Q01DX001 (ip), vehicle: saline 94 % of control | dose: 20.0 mg/kg/injection, schedule: Q01DX001 (ip), vehicle: saline 87 % of control

O=c1[nH]c2ccccc2nc1C(Br)Br
inactive: [11] 97 % of control | [12] 105 % of control | [13] 97 % of control

CCOC(=O)NC(CI)(c1ccccc1)c1ccccc1
inactive: dose: 75.0 mg/kg/injection, schedule: Q01DX001 (ip), vehicle: saline 98 % of control | dose: 150.0 mg/kg/injection, schedule: Q01DX001 (ip), vehicle: saline 97 % of control | dose: 300.0 mg/kg/injection, schedule: Q01DX001 (ip), vehicle: saline 92 % of control

Nc1cccc(OCc2cccc([N+](=O)[O-])c2)c1
inactive: dose: 100.0 mg/kg/injection, schedule: Q01DX001 (ip), vehicle: carboxymethylcellulose (CMC) 101 % of control | dose: 200.0 mg/kg/injection, schedule: Q01DX001 (ip), vehicle: carboxymethylcellulose (CMC) 90 % of control | dose: 400.0 mg/kg/injection, schedule: Q01DX001 (ip), vehicle: carboxymethylcellulose (CMC) 86 % of control

Cc1ccc(C)c(N=C=O)c1
inactive: dose: 6.25 mg/kg/injection, schedule: Q01DX009 (ip), vehicle: saline with Tween-80 98 % of control | dose: 12.5 mg/kg/injection, schedule: Q01DX009 (ip), vehicle: saline with Tween-80 96 % of control | dose: 25.0 mg/kg/injection, schedule: Q01DX009 (ip), vehicle: saline with Tween-80 93 % of control | [14] 104 % of control | [15] 109 % of control

CC(CO)CCCC(C)C1CCC2C3CCC4CC(O)CCC4(C)C3CCC12C (centres undefined)
inactive: [1] 95 % of control | [2] 87 % of control | [4] 90 % of control

COc1cc(C(=O)Nc2ccccc2F)cc(OC)c1OC
inactive: [6] 92 % of control | [7] 94 % of control | [8] 97 % of control

CC(C)CCSc1ccccc1
inactive: dose: 18.75 mg/kg/injection, schedule: Q01DX009 (ip), vehicle: acetone 91 % of control | dose: 37.5 mg/kg/injection, schedule: Q01DX009 (ip), vehicle: acetone 92 % of control | dose: 37.5 mg/kg/injection, schedule: Q04DX003 (ip), vehicle: acetone 100 % of control | dose: 75.0 mg/kg/injection, schedule: Q01DX001 (ip), vehicle: acetone 100 % of control | dose: 75.0 mg/kg/injection, schedule: Q01DX009 (ip), vehicle: acetone 91 % of control | dose: 75.0 mg/kg/injection, schedule: Q04DX003 (ip), vehicle: acetone 90 % of control | dose: 150.0 mg/kg/injection, schedule: Q01DX001 (ip), vehicle: acetone 94 % of control | dose: 150.0 mg/kg/injection, schedule: Q04DX003 (ip), vehicle: acetone 95 % of control

CCSCCOC(=S)Nc1ccccc1
inactive: [11] 98 % of control | [12] 97 % of control | [13] 92 % of control

NC(=O)c1c(F)c(F)c(N)c(F)c1F
inactive: dose: 100.0 mg/kg/injection, schedule: Q04DX002 (ip), vehicle: Klucel (hydroxypropylcellulose) (HPC) 96 % of control | dose: 200.0 mg/kg/injection, schedule: Q04DX002 (ip), vehicle: Klucel (hydroxypropylcellulose) (HPC) 93 % of control | dose: 400.0 mg/kg/injection, schedule: Q04DX002 (ip), vehicle: Klucel (hydroxypropylcellulose) (HPC) 118 % of control

Oc1cccc(-c2cccc(OCCCCCCCCCCBr)c2)c1
inactive: dose: 12.5 mg/kg/injection, schedule: Q01DX009 (ip), vehicle: DMSO 108 % of control | dose: 25.0 mg/kg/injection, schedule: Q01DX009 (ip), vehicle: DMSO 94 % of control | dose: 100.0 mg/kg/injection, schedule: Q04DX003 (ip), vehicle: DMSO 92 % of control | dose: 200.0 mg/kg/injection, schedule: Q04DX003 (ip), vehicle: DMSO 91 % of control

N=C(OC1CCCCC1)N1CCOCC1
inactive: dose: 22.0 mg/kg/injection, schedule: Q01DX Z (ip), vehicle: saline 100 % of control | dose: 33.0 mg/kg/injection, schedule: Q01DX Z (ip), vehicle: saline 102 % of control | dose: 50.0 mg/kg/injection, schedule: Q01DX Z (ip), vehicle: saline 106 % of control

FC1(F)SC2C3CC(C4CCC=C43)C2C1(F)F (centres undefined)
inactive: dose: 0.78 mg/kg/injection, schedule: Q01DX009 (ip), vehicle: Klucel (hydroxypropylcellulose) (HPC) 96 % of control | dose: 1.56 mg/kg/injection, schedule: Q01DX009 (ip), vehicle: Klucel (hydroxypropylcellulose) (HPC) 93 % of control | dose: 1.56 mg/kg/injection, schedule: Q04DX003 (ip), vehicle: Klucel (hydroxypropylcellulose) (HPC) 102 % of control | dose: 3.13 mg/kg/injection, schedule: Q04DX003 (ip), vehicle: Klucel (hydroxypropylcellulose) (HPC) 100 % of control

NCCSC(C[N+](=O)[O-])c1ccc2c(c1)OCO2 (centres undefined)
inactive: [14] 93 % of control | [15] 98 % of control

CCOC(=O)Nc1cccc2ccccc12
inactive: [11] 101 % of control | [12] 97 % of control | [13] 98 % of control

CCSc1nc(C(OC)OC)c(Cc2ccccc2)c(=O)[nH]1
inactive: [11] 95 % of control | [12] 89 % of control | [13] 100 % of control

ClCCN(CC1C(c2ccccc2)C1c1ccccc1)C1CCCCC1 (centres undefined)
inactive: dose: 1.5 mg/kg/injection, schedule: Q04DX002 (ip), vehicle: Klucel (hydroxypropylcellulose) (HPC) 104 % of control | dose: 3.1 mg/kg/injection, schedule: Q04DX002 (ip), vehicle: Klucel (hydroxypropylcellulose) (HPC) 92 % of control | dose: 6.25 mg/kg/injection, schedule: Q04DX002 (ip), vehicle: Klucel (hydroxypropylcellulose) (HPC) 92 % of control

CCCCNC(=O)Nc1ccc(CC)cc1
inactive: [6] 98 % of control | [11] 97 % of control | [7] 102 % of control | [12] 102 % of control | [8] 96 % of control | [13] 100 % of control
